From ChEMBL document CHEMBL1140220, “Synthetic and crystallographic studies of a new inhibitor series targeting Bacillus anthracis dihydrofolate reductase” (J Med Chem, 2008)
pIC50: −log10 of the molar value.

Target: T1, Dihydrofolate reductase (Homo sapiens, UniProt P00374)
T1 sequence (P00374 whole entry): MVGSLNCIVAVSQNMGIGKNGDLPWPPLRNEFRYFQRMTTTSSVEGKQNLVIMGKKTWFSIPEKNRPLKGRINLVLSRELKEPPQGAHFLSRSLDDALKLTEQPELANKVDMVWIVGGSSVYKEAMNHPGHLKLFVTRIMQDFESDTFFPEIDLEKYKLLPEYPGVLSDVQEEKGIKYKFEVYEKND

## CCc1nc(N)nc(N)c1C#CCc1ccccc1
  pIC50: 6.44

## CCc1nc(N)nc(N)c1C#CCc1cccc(OC)c1OC
  pIC50: 6.89
